“Also recorded” adds a separate entry of the source.
Key:
[1] = Plasma concentrations of compound 149 after once daily oral dosing; format: in vivo, human; settings: all patients, once daily oral 100 mg or 200 mg
Experimental: (§1) Compound 149 was administered to human patients in a Phase 1a/lb trial investigating safety and tolerability in relapsed and refractory B cell malignancies. Compound 149 was administered as a once daily oral dose first in an accelerated Phase 1a dose escalation starting at 100 mg on Day 1. The first dose levels are explored in a single patient cohort until a grade 2 adverse event has been observed. Thereafter, a traditional 3+3 escalation design is used. This 100 mg starting dose was predicted to provide similar exposure as that observed in non-human primate studies. Once a dose is selected based on all safety, efficacy, pharmacokinetic, and pharmacodynamic data available, the trial will expand in up to five expansion cohorts.

patients with CLL = test: Efficacy evaluations in CLL patients; format: in vivo, human
Experimental: (§2) Patients were treated at four different dosage levels of Compound 149: dose level 1 (100 mg), dose level 2 (200 mg), dose level 3 (300 mg), and dose level 4 (400 mg). The objective of the study was to assess safety and tolerability, to identify maximum tolerated dose, and to evaluate PK/PD.
Patients evaluated in this study were treated for diseases or disorders selected from the group consisting of: chronic lymphocytic leukemia (CLL) with BTK C481 mutation (n 20); CLL without BTK C481 mutation (n˜20); mantle cell lymphoma (MCL), marginal zone lymphoma (MZL), Waldenstrom's macroglobulinemia (WM) (n˜20); follicular lymphoma (FL) (n˜20); and diffuse large B cell lymphoma (DLBCL) (n˜20). Heavily pretreated patient population, including double-refractory CLL patients.
Data shown in FIG. 6 confirms that Compound 149 is a potent BTK degrader to solve inhibitor resistance observed with prior therapy.

[2] = Safety and tolerability in patients with relapsed and refractory B cell malignancies; format: in vivo; settings: for Anemia, Grade ≥ 3 / Clostridium difficile colitis, Grade ≥ 3 / Clostridium difficile infection, Grade ≥ 3 / Cognitive disorder, Grade ≥ 3 / Dyspnea, Grade ≥ 3 / Hypertension, Grade ≥ 3 / Neutropenia, Grade ≥ 3 / Pain in extremity, Grade ≥ 3 / Upper resp. tract infection, Grade ≥ 3: all patients
Experimental: as §1, §2
Safety population included 19 subjects, and data is summarize in Table 6 below. Two subjects were assigned to the 100 mg cohort but treatment was not entered in the electronic data capture (EDC) at time of extract.

[3] = system: novel BTK mutations emerging post BTKi-treatment; test: Degradation of novel BTK mutations emerging post BTKi-treatment (FIG. 6); format: cell-based; settings: multiple novel BTK mutations emerging post BTKi-treatment
Ikaros = target: T1, Ikaros (Homo sapiens, UniProt Q13422+Q96SW2); test: Ikaros degradation in the patient; format: in vivo; settings: DLBCL patient, 300 mg
T1 construct: peripheral blood was obtained from all patients for baseline and post Compound 149 therapy assessment of BTK and Ikaros degradation; endogenous in cells; host or cells: peripheral blood cells of a DLBCL patient
Experimental: Following informed consent, peripheral blood was obtained from all patients for baseline and post Compound 149 therapy assessment of BTK and Ikaros degradation. Patient blood (5 mL) was drawn and immediately fixed in a 5 mL CytoChex™ BCT tube and stored at ambient temperature until assessment via flow cytometry. Blood samples were analyzed within 3 days post sample collection at Precision for Medicine. Additional blood was also drawn into 8 mL BD Vacutainer® CPT™ Cell Preparation Tube with Sodium Citrate. Peripheral blood mononuclear cells (PBMCs) were processed, and viability frozen according to manufacturer's protocol. The patient's response was checked at 8 weeks and 16 weeks. […] Gradual BTK degradation was observed until day 8 day of receiving the 300 mg dose of Compound 149, wherein the maximum BTK degradation was achieved on the 8th day. Consistent with its design, Compound 149 also degraded Ikaros and Aiolos which is responsible for the compound's immunomodulatory activity. […] In the 16-week assessment image, maximum standard uptake value (Max SUV) reduced from 17.6 at screening to 2.5 at the 16-week assessment time with the Deauville five-point scale (5PS; Barrington et al., 2010, Eur J Nucl Med Mol Imaging 37 (10): 1824-33) reducing from 5 to 2.

Aiolos = target: T2, Aiolos (Homo sapiens, UniProt Q96SW2+Q9UKT9); test: Aiolos degradation in the patient; format: in vivo; settings: DLBCL patient, 300 mg
T2 construct: Compound 149 also degraded Ikaros and Aiolos; endogenous in cells
Experimental: (§3) The patient's response was checked at 8 weeks and 16 weeks. […] Gradual BTK degradation was observed until day 8 day of receiving the 300 mg dose of Compound 149, wherein the maximum BTK degradation was achieved on the 8th day. Consistent with its design, Compound 149 also degraded Ikaros and Aiolos which is responsible for the compound's immunomodulatory activity. […] In the 16-week assessment image, maximum standard uptake value (Max SUV) reduced from 17.6 at screening to 2.5 at the 16-week assessment time with the Deauville five-point scale (5PS; Barrington et al., 2010, Eur J Nucl Med Mol Imaging 37 (10): 1824-33) reducing from 5 to 2.

[4] = system: lymphoma cells harboring BTK-C481S mutation; test: Killing of lymphoma cells harboring BTK-C481S mutation (FIG. 6); format: cell-based
[5] = system: patient with non-GCB (ABC subtype) DLBCL; test: Response of a patient with non-GCB (ABC subtype) DLBCL (Lugano criteria, FDG-PET CT scan); format: in vivo, human; settings: 300 mg
Experimental: A heavily pre-treated patient with non-GCB (ABC subtype) DLBCL was enrolled in Compound 149 phase 1 dose-escalation. The patient was treated at a single dosage level of Compound 149: […] (300 mg) for a period of 5 months and ongoing. The objective of the study was to assess safety and tolerability, to identify maximum tolerated dose, and to evaluate PK/PD.
as §3

T1 sequence (Q13422 whole entry): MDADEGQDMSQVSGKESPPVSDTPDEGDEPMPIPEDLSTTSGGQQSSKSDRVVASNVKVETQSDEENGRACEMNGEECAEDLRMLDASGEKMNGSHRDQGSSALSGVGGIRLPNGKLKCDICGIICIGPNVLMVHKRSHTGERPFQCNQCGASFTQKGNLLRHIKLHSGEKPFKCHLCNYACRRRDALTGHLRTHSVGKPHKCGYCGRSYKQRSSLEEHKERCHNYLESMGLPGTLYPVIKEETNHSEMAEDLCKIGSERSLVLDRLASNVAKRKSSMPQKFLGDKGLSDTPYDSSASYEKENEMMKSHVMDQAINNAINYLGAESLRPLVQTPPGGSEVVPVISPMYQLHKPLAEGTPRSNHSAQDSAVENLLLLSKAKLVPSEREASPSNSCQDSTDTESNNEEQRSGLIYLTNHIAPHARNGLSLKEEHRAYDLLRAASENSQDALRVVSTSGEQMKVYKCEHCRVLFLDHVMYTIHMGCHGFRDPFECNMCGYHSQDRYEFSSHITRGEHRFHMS
T1 sequence (Q96SW2 whole entry): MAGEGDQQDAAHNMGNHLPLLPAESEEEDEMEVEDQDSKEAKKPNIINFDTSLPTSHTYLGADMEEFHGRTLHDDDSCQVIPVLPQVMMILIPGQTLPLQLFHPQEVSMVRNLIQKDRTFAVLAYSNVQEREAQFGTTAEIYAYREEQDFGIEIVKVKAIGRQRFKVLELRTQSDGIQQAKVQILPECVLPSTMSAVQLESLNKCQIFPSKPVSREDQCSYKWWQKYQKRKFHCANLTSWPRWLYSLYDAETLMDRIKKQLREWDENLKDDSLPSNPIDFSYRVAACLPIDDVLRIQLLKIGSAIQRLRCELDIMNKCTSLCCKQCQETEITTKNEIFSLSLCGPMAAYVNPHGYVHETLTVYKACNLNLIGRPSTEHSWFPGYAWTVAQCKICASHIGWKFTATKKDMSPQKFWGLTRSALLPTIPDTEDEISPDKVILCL
T1 sequence (Q16531 whole entry partner): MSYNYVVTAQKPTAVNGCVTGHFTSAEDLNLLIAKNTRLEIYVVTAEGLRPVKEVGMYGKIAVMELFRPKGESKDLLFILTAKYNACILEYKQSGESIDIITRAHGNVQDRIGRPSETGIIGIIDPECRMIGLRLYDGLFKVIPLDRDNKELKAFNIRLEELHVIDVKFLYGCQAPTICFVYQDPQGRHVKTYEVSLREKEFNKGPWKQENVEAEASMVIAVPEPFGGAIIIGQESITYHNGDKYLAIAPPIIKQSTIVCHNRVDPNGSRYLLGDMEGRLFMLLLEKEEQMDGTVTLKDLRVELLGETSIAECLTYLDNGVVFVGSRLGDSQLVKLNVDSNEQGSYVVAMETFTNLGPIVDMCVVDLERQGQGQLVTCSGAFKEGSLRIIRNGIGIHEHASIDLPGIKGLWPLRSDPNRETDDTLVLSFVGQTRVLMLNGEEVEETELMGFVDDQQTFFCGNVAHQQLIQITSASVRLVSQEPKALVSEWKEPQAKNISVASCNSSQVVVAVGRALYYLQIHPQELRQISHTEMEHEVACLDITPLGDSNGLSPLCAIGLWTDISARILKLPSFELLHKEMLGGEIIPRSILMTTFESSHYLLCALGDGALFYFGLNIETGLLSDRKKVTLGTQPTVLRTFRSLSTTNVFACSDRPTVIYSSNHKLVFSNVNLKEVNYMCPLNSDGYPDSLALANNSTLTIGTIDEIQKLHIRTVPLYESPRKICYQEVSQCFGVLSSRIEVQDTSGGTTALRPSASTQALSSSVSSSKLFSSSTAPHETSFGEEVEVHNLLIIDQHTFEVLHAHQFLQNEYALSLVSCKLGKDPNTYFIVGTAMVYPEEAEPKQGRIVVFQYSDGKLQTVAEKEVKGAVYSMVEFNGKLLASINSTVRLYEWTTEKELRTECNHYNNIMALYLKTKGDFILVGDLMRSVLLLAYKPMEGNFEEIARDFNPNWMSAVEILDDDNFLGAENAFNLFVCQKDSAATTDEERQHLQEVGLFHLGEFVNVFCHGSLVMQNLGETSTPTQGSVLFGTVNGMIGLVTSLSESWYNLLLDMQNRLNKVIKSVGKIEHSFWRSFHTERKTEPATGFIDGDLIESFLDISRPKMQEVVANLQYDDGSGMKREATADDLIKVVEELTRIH
T2 sequence (Q9UKT9 whole entry): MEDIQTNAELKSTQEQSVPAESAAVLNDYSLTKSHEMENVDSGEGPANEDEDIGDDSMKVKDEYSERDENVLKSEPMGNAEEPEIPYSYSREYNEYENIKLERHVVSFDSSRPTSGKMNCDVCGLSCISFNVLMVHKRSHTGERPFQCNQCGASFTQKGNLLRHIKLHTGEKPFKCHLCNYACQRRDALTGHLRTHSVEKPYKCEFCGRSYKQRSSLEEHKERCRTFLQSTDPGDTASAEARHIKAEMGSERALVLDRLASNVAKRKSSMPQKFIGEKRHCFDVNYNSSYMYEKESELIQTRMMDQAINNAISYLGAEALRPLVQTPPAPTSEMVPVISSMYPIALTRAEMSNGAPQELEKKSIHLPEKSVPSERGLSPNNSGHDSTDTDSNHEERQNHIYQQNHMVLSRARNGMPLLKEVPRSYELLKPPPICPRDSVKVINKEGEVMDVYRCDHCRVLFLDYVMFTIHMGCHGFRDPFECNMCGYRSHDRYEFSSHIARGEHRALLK
T2 sequence (Q96SW2 whole entry): as the sequence (Q96SW2 whole entry) above
T2 sequence (Q16531 whole entry partner): as the sequence (Q16531 whole entry partner) above

NC(=O)c1ncc(N2CCCCC2)nc1Nc1ccc(C2CCN(C[C@@H]3CCN(c4ccc5c(c4)C(=O)N(C4CCC(=O)NC4=O)C5=O)C3)CC2)cc1 (stereo partly shown) [Compound 149]
steady state plasma concentrations achieved by [1]: ≤ 8 days
clinical activity / benefit in CLL patients (patients with CLL; CLL patients with prior therapy (median of six prior treatments), 100 mg, FIG. 4): durable benefit; also recorded: showed clinical activity
nodal reductions and/or lymphocytosis (patients with CLL; all evaluable CLL patients, FIG. 5): nodal reductions and/or lymphocytosis observed in all patients treated
responses in BTK inhibitor-resistant CLL patients (patients with CLL; evaluable CLL patients, FIG. 5): responses in patients with resistance mutations to covalent and non-covalent BTK inhibitors
Anemia, Grade ≥ 3 ([2]; 100 mg (N = 10)): 1 (10%) n (%)
Clostridium difficile colitis, Grade ≥ 3 ([2]; 100 mg (N = 10)): 0 (0%) n (%)
Clostridium difficile infection, Grade ≥ 3 ([2]; 100 mg (N = 10)): 0 (0%) n (%)
Cognitive disorder, Grade ≥ 3 ([2]; 100 mg (N = 10)): 0 (0%) n (%)
Dyspnea, Grade ≥ 3 ([2]; 100 mg (N = 10)): 0 (0%) n (%)
Hypertension, Grade ≥ 3 ([2]; 100 mg (N = 10)): 0 (0%) n (%)
Neutropenia, Grade ≥ 3 ([2]; 100 mg (N = 10)): 1 (10%) n (%)
Pain in extremity, Grade ≥ 3 ([2]; 100 mg (N = 10)): 0 (0%) n (%)
Upper resp. tract infection, Grade ≥ 3 ([2]; 100 mg (N = 10)): 0 (0%) n (%)
Anemia, Grade ≥ 3 ([2]; 200 mg (N = 6)): 1 (16.7%) n (%)
Clostridium difficile colitis, Grade ≥ 3 ([2]; 200 mg (N = 6)): 1 (16.7%) n (%)
Clostridium difficile infection, Grade ≥ 3 ([2]; 200 mg (N = 6)): 1 (16.7%) n (%)
Cognitive disorder, Grade ≥ 3 ([2]; 200 mg (N = 6)): 0 (0%) n (%)
Dyspnea, Grade ≥ 3 ([2]; 200 mg (N = 6)): 1 (16.7%) n (%)
Hypertension, Grade ≥ 3 ([2]; 200 mg (N = 6)): 1 (16.7%) n (%)
Neutropenia, Grade ≥ 3 ([2]; 200 mg (N = 6)): 3 (50%) n (%)
Pain in extremity, Grade ≥ 3 ([2]; 200 mg (N = 6)): 0 (0%) n (%)
Upper resp. tract infection, Grade ≥ 3 ([2]; 200 mg (N = 6)): 1 (16.7%) n (%)
Anemia, Grade ≥ 3 ([2]; 300 mg (N = 3)): 0 (0%) n (%)
Clostridium difficile colitis, Grade ≥ 3 ([2]; 300 mg (N = 3)): 0 (0%) n (%)
Clostridium difficile infection, Grade ≥ 3 ([2]; 300 mg (N = 3)): 0 (0%) n (%)
Cognitive disorder, Grade ≥ 3 ([2]; 300 mg (N = 3)): 1 (33.3%) n (%)
Dyspnea, Grade ≥ 3 ([2]; 300 mg (N = 3)): 0 (0%) n (%)
Hypertension, Grade ≥ 3 ([2]; 300 mg (N = 3)): 0 (0%) n (%)
Neutropenia, Grade ≥ 3 ([2]; 300 mg (N = 3)): 2 (66.7%) n (%)
Pain in extremity, Grade ≥ 3 ([2]; 300 mg (N = 3)): 1 (33.3%) n (%)
Upper resp. tract infection, Grade ≥ 3 ([2]; 300 mg (N = 3)): 0 (0%) n (%)
dose limiting toxicity ([2]; 300 mg, a CLL patient, cognitive AE believed related to immunomodulatory activity): Dose limiting toxicity was observed
dose limiting toxicity (DLT) or serious adverse event (SAE) ([2]; DLBCL patient, 300 mg, 5 months and ongoing): no dose limiting toxicity (DLT) or serious adverse event (SAE) was observed
atrial fibrillation adverse events ([2]; at 100 mg in a patient with MCL and at 200 mg in a patient with CLL): Two AEs of lower grade atrial fibrillation were observed
tolerability / dose limiting toxicities ([2]; humans, 100 mg and 200 mg per dose): well-tolerated with no dose limiting toxicities
degradation of mutant BTK [3]: degrades multiple novel BTK mutations emerging post BTKi-treatment
Ikaros degradation (Ikaros): degraded
Aiolos degradation (Aiolos): degraded
killing of lymphoma cells [4]: kills lymphoma cells harboring BTK-C481S mutation
Deauville five-point scale (5PS) ([5]; DLBCL patient, 16-week assessment, 5 at screening): 2
maximum standard uptake value (Max SUV) ([5]; DLBCL patient, 16-week assessment, 17.6 at screening): 2.5
response per Lugano criteria at 8 weeks ([5]; heavily pre-treated non-GCB (ABC subtype) DLBCL patient): complete response
response at the 16-week assessment (FDG-PET CT Scan Disease Assessment) ([5]; non-GCB (ABC subtype) DLBCL patient, FIG. 9): complete confirmed response
